From ChEMBL document CHEMBL3045446, “In vitro antimicrobial and antimycobacterial activity of some chalcones and their derivatives” (2013)
≈ marks a conversion by molar mass, not a printed value.

How the values were obtained:
Format in all cases: functional
Pseudomonas aeruginosa [1] = assay: Antimicrobial activity against Pseudomonas aeruginosa MTCC 741 assessed as diameter of growth inhibition zone after 24 hr
Candida albicans [2] = assay: Antimicrobial activity against Candida albicans MTCC 183 assessed as growth inhibition after 48 hr by agar streak dilution method; conditions: MTCC 183, 48 h
Aspergillus niger [3] = assay: Antimicrobial activity against Aspergillus niger MTCC 282 assessed as growth inhibition after 48 hr by agar streak dilution method; conditions: MTCC 282, 48 h
Aspergillus clavatus [4] = assay: Antimicrobial activity against Aspergillus clavatus MTCC 1323 assessed as growth inhibition after 48 hr by agar streak dilution method; conditions: MTCC 1323, 48 h
[5] = test system: Mycobacterium tuberculosis; assay: Antituberculosis activity against Mycobacterium tuberculosis H37Rv assessed as growth inhibition after 12 to 28 days by L-J MIC method; conditions: for MIC: Mycobacterium tuberculosis, H37Rv
Pseudomonas aeruginosa [6] = assay: Antimicrobial activity against Pseudomonas aeruginosa MTCC 741 assessed as growth inhibition after 24 hr by agar streak dilution method; conditions: MTCC 741, 24 h
Aspergillus fumigatus [7] = assay: Antimicrobial activity against Aspergillus fumigatus MTCC 343 assessed as growth inhibition after 48 hr by agar streak dilution method; conditions: MTCC 343, 48 h
Bacillus cereus [8] = assay: Antimicrobial activity against Bacillus cereus MTCC 430 assessed as diameter of growth inhibition zone after 24 hr
Aspergillus fumigatus [9] = assay: Antimicrobial activity against Aspergillus fumigatus MTCC 343 assessed as diameter of growth inhibition zone after 48 hr
Staphylococcus aureus [10] = assay: Antimicrobial activity against Staphylococcus aureus MTCC 96 assessed as growth inhibition after 24 hr by agar streak dilution method; conditions: MTCC 96, 24 h
Aspergillus niger [11] = assay: Antimicrobial activity against Aspergillus niger MTCC 282 assessed as diameter of growth inhibition zone after 48 hr
Escherichia coli [12] = assay: Antimicrobial activity against Escherichia coli MTCC 739 assessed as growth inhibition after 24 hr by agar streak dilution method; conditions: MTCC 739, 24 h
Escherichia coli [13] = assay: Antimicrobial activity against Escherichia coli MTCC 739 assessed as diameter of growth inhibition zone after 24 hr
Staphylococcus aureus [14] = assay: Antimicrobial activity against Staphylococcus aureus MTCC 96 assessed as diameter of growth inhibition zone after 24 hr
Shigella flexneri [15] = assay: Antimicrobial activity against Shigella flexneri MTCC1457 assessed as diameter of growth inhibition zone after 24 hr
Salmonella typhi [16] = assay: Antimicrobial activity against Salmonella enterica subsp. enterica serovar Typhi MTCC 733 assessed as diameter of growth inhibition zone after 24 hr
Proteus vulgaris [17] = assay: Antimicrobial activity against Proteus vulgaris MTCC 1771 assessed as diameter of growth inhibition zone after 24 hr
Shigella flexneri [18] = assay: Antimicrobial activity against Shigella flexneri MTCC1457 assessed as growth inhibition after 24 hr by agar streak dilution method; conditions: MTCC1457, 24 h
Salmonella typhi [19] = assay: Antimicrobial activity against Salmonella enterica subsp. enterica serovar Typhi MTCC 733 assessed as growth inhibition after 24 hr by agar streak dilution method; conditions: MTCC 733, 24 h
Klebsiella pneumoniae [20] = assay: Antimicrobial activity against Klebsiella pneumoniae MTCC 109 assessed as diameter of growth inhibition zone after 24 hr
Proteus vulgaris [21] = assay: Antimicrobial activity against Proteus vulgaris MTCC 1771 assessed as growth inhibition after 24 hr by agar streak dilution method; conditions: MTCC 1771, 24 h
Candida albicans [22] = assay: Antimicrobial activity against Candida albicans MTCC 183 assessed as diameter of growth inhibition zone after 48 hr
Bacillus cereus [23] = assay: Antimicrobial activity against Bacillus cereus MTCC 430 assessed as growth inhibition after 24 hr by agar streak dilution method; conditions: MTCC 430, 24 h
Aspergillus clavatus [24] = assay: Antimicrobial activity against Aspergillus clavatus MTCC 1323 assessed as diameter of growth inhibition zone after 48 hr
Klebsiella pneumoniae [25] = assay: Antimicrobial activity against Klebsiella pneumoniae MTCC 109 assessed as growth inhibition after 24 hr by agar streak dilution method; conditions: MTCC 109, 24 h

| Compound | diameter of the inhibition zone (DIZ) (Pseudomonas aeruginosa [1]) | MIC (Candida albicans [2]) | MIC (Aspergillus niger [3]) | MIC (Aspergillus clavatus [4]) | growth inhibition (GI) [5] | MIC [5] | MIC (Pseudomonas aeruginosa [6]) | MIC (Aspergillus fumigatus [7]) | diameter of the inhibition zone (DIZ) (Bacillus cereus [8]) | diameter of the inhibition zone (DIZ) (Aspergillus fumigatus [9]) | MIC (Staphylococcus aureus [10]) | diameter of the inhibition zone (DIZ) (Aspergillus niger [11]) | MIC (Escherichia coli [12]) | diameter of the inhibition zone (DIZ) (Escherichia coli [13]) | diameter of the inhibition zone (DIZ) (Staphylococcus aureus [14]) | diameter of the inhibition zone (DIZ) (Shigella flexneri [15]) | diameter of the inhibition zone (DIZ) (Salmonella typhi [16]) | diameter of the inhibition zone (DIZ) (Proteus vulgaris [17]) | MIC (Shigella flexneri [18]) | MIC (Salmonella typhi [19]) | other results |
| --- | --- | --- | --- | --- | --- | --- | --- | --- | --- | --- | --- | --- | --- | --- | --- | --- | --- | --- | --- | --- | --- |
| N#Cc1c(-c2ccccc2)cc(-c2ccc(Nc3cc(=O)oc4ccccc34)cc2)nc1N | 18 mm | 25 µg/mL (≈ 58.1 µM) | 25 µg/mL (≈ 58.1 µM) | 12.5 µg/mL (≈ 29 µM) | 96% | 500 µg/mL (≈ 1160 µM) | 50 µg/mL (≈ 116 µM) | 25 µg/mL (≈ 58.1 µM) | 19 mm | 21 mm | 50 µg/mL (≈ 116 µM) | 21 mm | 50 µg/mL (≈ 116 µM) | 19 mm | 17 mm | 17 mm | 23 mm | 19 mm | 50 µg/mL (≈ 116 µM) | 12.5 µg/mL (≈ 29 µM) | diameter of the inhibition zone (DIZ) (Klebsiella pneumoniae [20]): 21 mm; MIC (Proteus vulgaris [21]): 25 µg/mL (≈ 58.1 µM); diameter of the inhibition zone (DIZ) (Candida albicans [22]): 19 mm; MIC (Bacillus cereus [23]): 50 µg/mL (≈ 116 µM); diameter of the inhibition zone (DIZ) (Aspergillus clavatus [24]): 23 mm; MIC (Klebsiella pneumoniae [25]): 25 µg/mL (≈ 58.1 µM) |
| N#Cc1c(-c2ccc(O)cc2O)cc(-c2ccc(Nc3cc(=O)oc4ccccc34)cc2)nc1N | 27 mm | 12.5 µg/mL (≈ 27 µM) | 12.5 µg/mL (≈ 27 µM) | 6.25 µg/mL (≈ 13.5 µM) | 97% | 100 µg/mL (≈ 216 µM) | 6.25 µg/mL (≈ 13.5 µM) | 6.25 µg/mL (≈ 13.5 µM) | 26 mm | 25 mm | 12.5 µg/mL (≈ 27 µM) | 22 mm | 12.5 µg/mL (≈ 27 µM) | 24 mm | 22 mm | 26 mm | 28 mm | 23 mm | 6.25 µg/mL (≈ 13.5 µM) | 3.12 µg/mL (≈ 6.75 µM) | diameter of the inhibition zone (DIZ) (Klebsiella pneumoniae [20]): 30 mm; MIC (Proteus vulgaris [21]): 12.5 µg/mL (≈ 27 µM); diameter of the inhibition zone (DIZ) (Candida albicans [22]): 23 mm; MIC (Bacillus cereus [23]): 6.25 µg/mL (≈ 13.5 µM); diameter of the inhibition zone (DIZ) (Aspergillus clavatus [24]): 27 mm; MIC (Klebsiella pneumoniae [25]): 3.12 µg/mL (≈ 6.75 µM) |
| CC(=O)N1N=C(c2ccc(Nc3cc(=O)oc4ccccc34)cc2)CC1c1ccccc1Br (stereo unspecified) | 12 mm | 25 µg/mL (≈ 49.8 µM) | 100 µg/mL (≈ 199 µM) | 100 µg/mL (≈ 199 µM) | 98% | 200 µg/mL (≈ 398 µM) | 100 µg/mL (≈ 199 µM) | 50 µg/mL (≈ 99.5 µM) | 14 mm | 17 mm | 100 µg/mL (≈ 199 µM) | 15 mm | 100 µg/mL (≈ 199 µM) | 14 mm | 16 mm | 14 mm | 15 mm | 15 mm | 100 µg/mL (≈ 199 µM) | 100 µg/mL (≈ 199 µM) | diameter of the inhibition zone (DIZ) (Klebsiella pneumoniae [20]): 16 mm; MIC (Proteus vulgaris [21]): 100 µg/mL (≈ 199 µM); diameter of the inhibition zone (DIZ) (Candida albicans [22]): 21 mm; MIC (Bacillus cereus [23]): 100 µg/mL (≈ 199 µM); diameter of the inhibition zone (DIZ) (Aspergillus clavatus [24]): 14 mm; MIC (Klebsiella pneumoniae [25]): 100 µg/mL (≈ 199 µM) |
| N#Cc1c(-c2ccccc2O)cc(-c2ccc(Nc3cc(=O)oc4ccccc34)cc2)nc1N | 24 mm | 25 µg/mL (≈ 56 µM) | 12.5 µg/mL (≈ 28 µM) | 6.25 µg/mL (≈ 14 µM) | 97% | 25 µg/mL (≈ 56 µM) | 12.5 µg/mL (≈ 28 µM) | 6.25 µg/mL (≈ 14 µM) | 22 mm | 25 mm | 12.5 µg/mL (≈ 28 µM) | 25 mm | 12.5 µg/mL (≈ 28 µM) | 24 mm | 21 mm | 21 mm | 25 mm | 22 mm | 12.5 µg/mL (≈ 28 µM) | 6.25 µg/mL (≈ 14 µM) | diameter of the inhibition zone (DIZ) (Klebsiella pneumoniae [20]): 28 mm; MIC (Proteus vulgaris [21]): 12.5 µg/mL (≈ 28 µM); diameter of the inhibition zone (DIZ) (Candida albicans [22]): 24 mm; MIC (Bacillus cereus [23]): 12.5 µg/mL (≈ 28 µM); diameter of the inhibition zone (DIZ) (Aspergillus clavatus [24]): 27 mm; MIC (Klebsiella pneumoniae [25]): 3.12 µg/mL (≈ 6.99 µM) |
| CC(=O)N1N=C(c2ccc(Nc3cc(=O)oc4ccccc34)cc2)CC1c1ccc(Cl)cc1 (stereo unspecified) | 14 mm | 50 µg/mL (≈ 109 µM) | 100 µg/mL (≈ 218 µM) | 100 µg/mL (≈ 218 µM) | 97% | 250 µg/mL (≈ 546 µM) | 100 µg/mL (≈ 218 µM) | 50 µg/mL (≈ 109 µM) | 17 mm | 17 mm | 50 µg/mL (≈ 109 µM) | 16 mm | 100 µg/mL (≈ 218 µM) | 15 mm | 19 mm | 20 mm | 18 mm | 19 mm | 50 µg/mL (≈ 109 µM) | 50 µg/mL (≈ 109 µM) | diameter of the inhibition zone (DIZ) (Klebsiella pneumoniae [20]): 21 mm; MIC (Proteus vulgaris [21]): 50 µg/mL (≈ 109 µM); diameter of the inhibition zone (DIZ) (Candida albicans [22]): 19 mm; MIC (Bacillus cereus [23]): 100 µg/mL (≈ 218 µM); diameter of the inhibition zone (DIZ) (Aspergillus clavatus [24]): 15 mm; MIC (Klebsiella pneumoniae [25]): 50 µg/mL (≈ 109 µM) |
| O=C(/C=C/c1ccc(O)cc1O)c1ccc(Nc2cc(=O)oc3ccccc23)cc1 | 19 mm | 100 µg/mL (≈ 250 µM) | 50 µg/mL (≈ 125 µM) | 25 µg/mL (≈ 62.6 µM) | 95% | 500 µg/mL (≈ 1250 µM) | 25 µg/mL (≈ 62.6 µM) | 25 µg/mL (≈ 62.6 µM) | 16 mm | 22 mm | 50 µg/mL (≈ 125 µM) | 19 mm | 50 µg/mL (≈ 125 µM) | 19 mm | 20 mm | 17 mm | 21 mm | 20 mm | 100 µg/mL (≈ 250 µM) | 25 µg/mL (≈ 62.6 µM) | diameter of the inhibition zone (DIZ) (Klebsiella pneumoniae [20]): 21 mm; MIC (Proteus vulgaris [21]): 25 µg/mL (≈ 62.6 µM); diameter of the inhibition zone (DIZ) (Candida albicans [22]): 16 mm; MIC (Bacillus cereus [23]): 100 µg/mL (≈ 250 µM); diameter of the inhibition zone (DIZ) (Aspergillus clavatus [24]): 20 mm; MIC (Klebsiella pneumoniae [25]): 25 µg/mL (≈ 62.6 µM) |
